pIC50: −log10 of the molar value. ≈ marks a conversion by molar mass, not a printed value. Read-outs that look alike come from different tables or passages of the source.
Columns and labels:
[1] = target: T1, beta-catenin/TCF4 engagement (Homo sapiens, UniProt P35222); experiment: Nano-BRET target engagement assay (B-cat-Halo & TCF4-Luc in HEK293 cells); assay type: cell-based
T1 construct: expressed in transfected cells; host or cells: HEK293
T1 sequence (P35222 1-781): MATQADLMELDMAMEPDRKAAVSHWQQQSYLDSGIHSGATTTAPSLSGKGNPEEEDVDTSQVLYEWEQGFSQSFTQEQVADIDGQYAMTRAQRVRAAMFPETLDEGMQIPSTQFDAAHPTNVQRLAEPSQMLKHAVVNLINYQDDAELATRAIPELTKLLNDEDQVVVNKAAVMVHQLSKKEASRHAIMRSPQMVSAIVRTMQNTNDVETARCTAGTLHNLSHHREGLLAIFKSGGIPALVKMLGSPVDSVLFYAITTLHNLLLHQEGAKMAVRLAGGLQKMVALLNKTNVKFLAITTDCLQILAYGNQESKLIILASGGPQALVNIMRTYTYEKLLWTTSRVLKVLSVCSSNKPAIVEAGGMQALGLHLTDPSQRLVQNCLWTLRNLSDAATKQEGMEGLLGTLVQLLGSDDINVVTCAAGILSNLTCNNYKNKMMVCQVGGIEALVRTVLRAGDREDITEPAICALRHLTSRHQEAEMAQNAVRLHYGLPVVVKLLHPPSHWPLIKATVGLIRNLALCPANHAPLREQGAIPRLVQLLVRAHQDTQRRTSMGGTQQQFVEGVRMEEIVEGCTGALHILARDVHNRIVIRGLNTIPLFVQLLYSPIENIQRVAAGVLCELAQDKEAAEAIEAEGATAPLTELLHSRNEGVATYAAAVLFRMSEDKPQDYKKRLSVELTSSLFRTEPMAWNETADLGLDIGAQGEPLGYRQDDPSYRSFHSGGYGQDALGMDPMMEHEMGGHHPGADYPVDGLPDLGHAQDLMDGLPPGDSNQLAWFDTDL

[2] = target: T2, full-length beta-Catenin (Uniprot ID P35222) (Homo sapiens, UniProt P35222); experiment: Fluorescence polarization IC50 (beta-catenin / 5FAM-TCF4 10-53 competition); assay type: binding
T2 construct: 10 nM full-length beta-Catenin (Uniprot ID P35222)
T2 sequence (P35222 1-781): T1 sequence (P35222 1-781)

Solubility in PBS = assay type: physicochemical
Procedure, shortened: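 Solubility is derived from HPLC peak areas: the ratio of the PBS supernatant peak to a 50 μM DMSO peptide peak, times 50 uM.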

CHI Log D procedure = assay type: physicochemical; conditions: for chromatographic logD: pH 7.4, CHI Log D; for CHI Log D: pH 7.4
[3] = absolute IC50, read-out: NanoBRET Abs IC50
[4] = fluorescence polarization, read-out: beta-Catenin FP IC50

Structure (SMILES)	pIC50 [1, 3]	pIC50 ([2]; read-out: beta-Catenin FP IC50)	Solubility (Solubility in PBS; Solubility (uM)) [µM]	chromatographic logD (CHI Log D procedure)	pIC50 ([1]; read-out: NanoBRET Abs IC50)	pIC50 ([1]; Abs IC50, read-out: NanoBRET Abs IC50)	pIC50 [2, 4]	pIC50 ([2]; read-out: FP EC50)	Solubility (Solubility in PBS) [µM]	CHI Log D (CHI Log D procedure)	inhibition at 10 µM ([1]; HEK293, @ 10 uM, read-out: NanoBRET % inh @ 10 uM) [%]	pIC50 ([1]; read-out: NanoBRET IC50)
CC(=O)N1CCC[C@]12CC=CCCCC1(CCCC=CCCCOC(=O)N3CC[C@@](C(=O)N[C@@H](Cc4ccsc4)C(=O)N[C@@H](Cc4csc5ccccc45)C(=O)N[C@@H](Cc4c[nH]cn4)C(N)=O)(C3)NC(=O)[C@H](CC(N)=O)NC(=O)[C@H](Cc3ccccc3)NC(=O)[C@H](C)NC(=O)[C@H](C)NC(=O)[C@H](CC(=O)O)NC(=O)[C@H](CC(=O)O)NC1=O)NC(=O)[C@H](CCC(C)C)NC(=O)[C@H](CC(=O)O)NC2=O (stereo partly drawn) [I-788, Ac-PL3-Asp-hLeu-B5-Asp-Asp-Ala-Ala-Phe-Asn-PyrS2-3Thi-BztA-His-NH2]		8.30	31 (≈ 59.7 µg/mL)	2.17	4.67							
CC(=O)N1CCC[C@]12CC=CCCCC1(CCCC=CCCCCCC[C@@](C)(C(=O)N[C@@H](Cc3ccsc3)C(=O)N[C@@H](Cc3csc4ccccc34)C(=O)N[C@@H](CCC(N)=O)C(N)=O)NC(=O)[C@H](CC(N)=O)NC(=O)[C@H](Cc3ccccc3)NC(=O)[C@H](C)NC(=O)[C@H](C)NC(=O)[C@H](CN(CC(=O)O)CC(F)(F)F)NC(=O)[C@H](CC(=O)O)NC1=O)NC(=O)[C@H](CC1CCCCC1)NC(=O)[C@H](CC(=O)O)NC2=O (stereo partly drawn) [I-708, Ac-PL3-Asp-Cha-B5-Asp-TfeGA-Ala-Ala-Phe-Asn-S8-3Thi-BztA-Gln-NH2]							7.28	7.28	47 (≈ 94.6 µg/mL)	2.976		4.94
COc1ccccc1C[C@H](NC(=O)[C@]12CCN(C1)C(=O)OCCCC=CCCCC1(CCCC=CC[C@]3(CCCN3C(C)=O)C(=O)N[C@@H](CC(=O)O)C(=O)N[C@@H](CC(C)(C)C)C(=O)N1)C(=O)N[C@@H](CC(=O)O)C(=O)N[C@@H](CC(=O)O)C(=O)N[C@@H](C)C(=O)N[C@@H](C)C(=O)N[C@@H](Cc1ccccc1)C(=O)N[C@@H](CC(N)=O)C(=O)N2)C(=O)N[C@@H](Cc1csc2ccccc12)C(=O)N[C@@H](CCC(N)=O)C(N)=O (stereo partly drawn) [I-780, Ac-PL3-Asp-Npg-B5-Asp-Asp-Ala-Ala-Phe-Asn-PyrS2-2OMeF-BztA-Gln-NH2]		8.05		2.08	4.68				50 (≈ 97.1 µg/mL)			4.77
CC(=O)N1CCC[C@]12CC=CCCCC1(CCCC=CCCCOC(=O)N3CC[C@@](C(=O)N[C@@H](Cc4ccccc4Cl)C(=O)N[C@@H](Cc4csc5ccccc45)C(=O)N[C@@H](CCC(N)=O)C(N)=O)(C3)NC(=O)[C@H](CC(C)C)NC(=O)[C@H](Cc3ccccc3)NC(=O)[C@H](C)NC(=O)[C@H](C)NC(=O)[C@H](CC(=O)O)NC(=O)[C@H](CC(=O)O)NC1=O)NC(=O)[C@H](Cc1cccc3ccccc13)NC(=O)[C@H](CC(=O)O)NC2=O (stereo partly drawn) [I-1110, Ac-PL3-Asp-1NapA-B5-Asp-Asp-Ala-Ala-Phe-Leu-PyrS2-2C1F-BztA-Gln-NH2]		7.42		2.37	< 4.70				10 (≈ 20.2 µg/mL)			
CC(=O)N1CCC[C@]12CC=CCCCC1(CCCC=CCCCOC(=O)N3CC[C@@](C(=O)N[C@@H](Cc4csc5ccccc45)C(=O)N[C@@H](Cc4csc5ccccc45)C(=O)N[C@@H](Cc4c[nH]cn4)C(N)=O)(C3)NC(=O)[C@H](CC(N)=O)NC(=O)[C@H](Cc3ccccc3)NC(=O)[C@H](C)NC(=O)[C@H](C)NC(=O)[C@H](CC(=O)O)NC(=O)[C@H](CC(=O)O)NC1=O)NC(=O)[C@H](CC(C)(C)C)NC(=O)[C@H](CC(=O)O)NC2=O (stereo partly drawn) [I-793, Ac-PL3-Asp-Npg-B5-Asp-Asp-Ala-Ala-Phe-Asn-PyrS2-BztA-BztA-His-NH2]		7.85		2.39	< 4.70				10 (≈ 19.8 µg/mL)			
CC(=O)N1CCC[C@]12CC=CCCCC1(CCCC=CCCCCCC[C@@](C)(C(=O)N[C@@H](Cc3ccsc3)C(=O)N[C@@H](Cc3csc4ccccc34)C(=O)N[C@@H](CCC(N)=O)C(N)=O)NC(=O)[C@H](CC(N)=O)NC(=O)[C@H](Cc3ccccc3)NC(=O)[C@H](C)NC(=O)[C@H](C)NC(=O)[C@H](CN(CC(=O)O)CC(F)(F)F)NC(=O)[C@H](CC(=O)O)NC1=O)NC(=O)[C@H](CC(C)(C)C)NC(=O)[C@H](CC(=O)O)NC2=O (stereo partly drawn) [I-704, Ac-PL3-Asp-Npg-B5-Asp-TfeGA-Ala-Ala-Phe-Asn-S8-3Thi-BztA-Gln-NH2]			42 (≈ 83.4 µg/mL)	2.75			7.31					5.10

Now from value to molecule:

pIC50 [1, 3]	pIC50 ([2]; read-out: beta-Catenin FP IC50)	Solubility (Solubility in PBS; Solubility (uM)) [µM]	chromatographic logD (CHI Log D procedure)	pIC50 ([1]; read-out: NanoBRET Abs IC50)	pIC50 ([1]; Abs IC50, read-out: NanoBRET Abs IC50)	pIC50 [2, 4]	pIC50 ([2]; read-out: FP EC50)	Solubility (Solubility in PBS) [µM]	CHI Log D (CHI Log D procedure)	inhibition at 10 µM ([1]; HEK293, @ 10 uM, read-out: NanoBRET % inh @ 10 uM) [%]	pIC50 ([1]; read-out: NanoBRET IC50)	Structure (SMILES)
< 4.70	7.80	45 (≈ 89.1 µg/mL)	2.39									CC(=O)N1CCC[C@]12CC=CCCCC1(CCCC=CCCCOC(=O)N3CC[C@@](C(=O)N[C@@H](Cc4ccccc4)C(=O)N[C@@H](Cc4csc5ccccc45)C(=O)N[C@@H](CCC(N)=O)C(N)=O)(C3)NC(=O)[C@H](CO)NC(=O)[C@H](Cc3cccc(C(F)(F)F)c3)NC(=O)[C@H](C)NC(=O)[C@H](C)NC(=O)[C@H](CC(=O)O)NC(=O)[C@H](CC(=O)O)NC1=O)NC(=O)[C@H](CC1CCCCC1)NC(=O)[C@H](CC(=O)O)NC2=O (stereo partly drawn) [I-1125, Ac-PL3-Asp-Cha-B5-Asp-Asp-Ala-Ala-3F3MeF-Ser-PyrS2-Phe-BztA-Gln-NH2]
5.00					5.00	7.85	7.85	50 (≈ 92.8 µg/mL)	2.432			CC(=O)N1CCC[C@]12CC=CCCCC1(CCCC=CCCCCCC[C@@](C)(C(=O)N[C@@H](Cc3ccccc3)C(=O)N[C@@H](Cc3csc4ccccc34)C(=O)N[C@@H](CC(N)=O)C(N)=O)NC(=O)[C@H](CC(N)=O)NC(=O)[C@H](Cc3ccccc3)NC(=O)[C@H](C)NC(=O)[C@H](C)NC(=O)[C@H](CCC(=O)O)NC(=O)[C@H](CC(=O)O)NC1=O)NC(=O)[C@H](CC(C)C)NC(=O)[C@H](CC(=O)O)NC2=O (stereo partly drawn) [I-753, Ac-PL3-Asp-Leu-B5-Asp-Glu-Ala-Ala-Phe-Asn-S8-Phe-BztA-Asn-NH2]
	7.72		2.08	< 4.70				50 (≈ 96.1 µg/mL)		9.7		CC(=O)N1CCC[C@]12CC=CCCCC1(CCCC=CCCCOC(=O)N3CC[C@@](C(=O)N[C@@H](Cc4ccsc4)C(=O)N[C@@H](Cc4cccc5ccccc45)C(=O)N[C@@H](Cc4c[nH]cn4)C(N)=O)(C3)NC(=O)[C@H](CC(N)=O)NC(=O)[C@H](Cc3ccccc3)NC(=O)[C@H](C)NC(=O)[C@H](C)NC(=O)[C@H](CC(=O)O)NC(=O)[C@H](CC(=O)O)NC1=O)NC(=O)[C@H](CC(C)(C)C)NC(=O)[C@H](CC(=O)O)NC2=O (stereo partly drawn) [I-789, Ac-PL3-Asp-Npg-B5-Asp-Asp-Ala-Ala-Phe-Asn-PyrS2-3Thi-1NapA-His-NH2]
	7.72	40 (≈ 78.8 µg/mL)	2.38	4.58								CC(=O)N1CCC[C@]12CC=CCCCC1(CCCC=CCCCOC(=O)N3CC[C@@](C(=O)N[C@@H](Cc4cccc5ccccc45)C(=O)N[C@@H](Cc4csc5ccccc45)C(=O)N[C@@H](Cc4c[nH]cn4)C(N)=O)(C3)NC(=O)[C@H](CC(N)=O)NC(=O)[C@H](Cc3ccccc3)NC(=O)[C@H](C)NC(=O)[C@H](C)NC(=O)[C@H](CC(=O)O)NC(=O)[C@H](CC(=O)O)NC1=O)NC(=O)[C@H](CC(C)(C)C)NC(=O)[C@H](CC(=O)O)NC2=O (stereo partly drawn) [I-794, Ac-PL3-Asp-Npg-B5-Asp-Asp-Ala-Ala-Phe-Asn-PyrS2-1NapA-BztA-His-NH2]
4.80		22 (≈ 41.3 µg/mL)	2.5			7.76						CC(=O)N1CCC[C@]12CC=CCCCC1(CCCC=CCCCCCC[C@@](C)(C(=O)N[C@@H](Cc3ccccc3)C(=O)N[C@@H](Cc3csc4ccccc34)C(=O)N[C@@H](Cc3c[nH]cn3)C(N)=O)NC(=O)[C@H](CC(N)=O)NC(=O)[C@H](Cc3ccccc3)NC(=O)[C@H](C)NC(=O)[C@H](C)NC(=O)[C@H](CC(=O)O)NC(=O)[C@H](CC(=O)O)NC1=O)NC(=O)[C@H](CC(C)(C)C)NC(=O)[C@H](CC(=O)O)NC2=O (stereo partly drawn) [I-582, Ac-PL3-Asp-Npg-B5-Asp-Asp-Ala-Ala-Phe-Asn-S8-Phe-BztA-His-NH2]
	7.92	44 (≈ 93.1 µg/mL)	2.15	4.71								CCCC(=O)NCCCC[C@H](NC(=O)[C@H](CCC(N)=O)NC(=O)[C@H](Cc1csc2ccccc12)NC(=O)[C@H](Cc1ccsc1)NC(=O)[C@]12CCN(C1)C(=O)OCCCC=CCCCC1(CCCC=CC[C@]3(CCCN3C(C)=O)C(=O)N[C@@H](CC(=O)O)C(=O)N[C@@H](CC(C)(C)C)C(=O)N1)C(=O)N[C@@H](CC(=O)O)C(=O)N[C@@H](CC(=O)O)C(=O)N[C@@H](C)C(=O)N[C@@H](C)C(=O)N[C@@H](Cc1ccccc1)C(=O)N[C@@H](CC(N)=O)C(=O)N2)C(N)=O (stereo partly drawn) [I-917, Ac-PL3-Asp-Npg-B5-Asp-Asp-Ala-Ala-Phe-Asn-PyrS2-3Thi-BztA-Gln-[Bua]Lys-NH2]
